Experimental data from patent US5190753A, “3-phenyl-5,6-dihydrobenziciacridine-7-carboxylic acids and related compounds as immunosuppressive agents” (Du Pont Merck Pharmaceutical Company, priority 1992, dated 1993).

Legend:
[1] = clinical use; cited from earlier work
[2] = tested on: contact sensitivity response to 2,4-dinitrofluorobenzene (DNFB) in Balb/c female mice; test: Contact sensitivity response to DNFB in mice (delayed-type hypersensitivity, ear swelling); assay type: in vivo
Experimental: Balb/c female mice (.perspectiveto. 20 g; Charles River) were sensitized on the shaved abdomen with 25 μl of 0.5% 2,4-dinitrofluorobenzene (DNFB, Eastman Kodak Co.) in a vehicle of 4:1 acetone:olive oil on days 0 and 1. Mice were ear challenged with 20 μl of 0.2% DNFB in a vehicle of 4:1 acetone:olive oil on day-5. An identical segment of the ear was measured immediately before challenge and 24 hours later with an engineer's micrometer. Ear swelling was expressed as the difference in ear thickness before and after challenge in units of 10^-4 inches ± SEM. Percent suppression was calculated as: [formula] Compounds were administered orally from day-2 through day-6 and were prepared in 0.25% Methocel® (Dow Chemical Co.). Control animals received only vehicle (0.25% Methocel®). Negative controls were not sensitized on days 0 and 1 but were ear challenged on day-5. Ten mice were used per group.
Contact sensitivity to DNFB is a form of delayed-type hypersensitivity which has been extensively studied to gain an understanding of the regulation of immunologic processes (Claman et al. (1980), Immunological Rev. 50:105-132). This reaction is mediated by T lymphocytes that become sensitized to antigen by proliferating and developing into mature effector cells (Claman et al. (1980), Immunological Rev. 50:105-132). This cell-mediated immune response (T-cell mediated immunity) is central to many disease states such as organ transplantation rejection and graft versus host disease (Benacerraf and Unanue (1979), Textbook of Immunology, Williams & Wilkins Co.; Eisen (1980), Immunology, An Introduction to Molecular and Cellular Principles of the Immune Responses, Harper & Row, Inc.; Loveland and McKenzie (1982), Immunology 46:313-320; Gallin et al. (1988), Inflammation, Basic Principles and Clinical Correlates, Raven Press). […]

[3] = tested on: human mixed lymphocyte reaction (peripheral blood mononuclear cells, PBMC); test: Human mixed lymphocyte reaction (3H-thymidine incorporation); assay type: cell-based
Experimental: Blood was obtained by venipuncture from two nonrelated human donors. Peripheral blood mononuclear cells (PBMC) were isolated from these samples by using the Leuco Prep procedure (Becton-Dickinson). PBMC were washed twice in phosphate buffered saline (without calcium and magnesium) and the separate cell isolations were adjusted to the appropriate concentrations in media (RPMI 1640) supplemented with 10% human AB serum and […] gentamicin. Cells from donor A (2×10^5) were incubated with cells from donor B (2×10^5) in 96 well round bottom microliter plates at 37° C., 5% CO2 for 6 days. Eighteen hours prior to harvesting cells from the plates, all wells were pulsed with 1 μCi of ^3 H-thymidine. Cells from the plates were harvested on day-6 and 3H-thymidine incorporation was determined using a scintillation counter.
The human mixed lymphocyte reaction model, is an in vitro model for transplantation rejection.

Structure (SMILES) | Significant clinically observed toxicities [1] | % Suppression ([2]; 20.0 mg/kg orally, day-2 through day-6, of ear swelling) | Ear Swelling (increase in ear thickness from day 5 to day 6) ([2]; 20.0 mg/kg orally, day-2 through day-6, units ± SEM, ten mice per group, 24 hours after challenge) | immunosuppressive activity (in words) ([2]; statement in words) | IC50 ([3]; Homo sapiens, Lymphocyte, 6 days incubation, 3H-thymidine pulse 18 hours prior to harvest) | human mixed lymphocyte reaction (in words) ([3]; statement in words, compared with CSA)
Cn1cnc([N+](=O)[O-])c1Sc1ncnc2nc[nH]c12 [azathioprine] | hepatoxicity | – | – | – | – | –
O=C([O-])c1c2c(nc3ccc(F)cc13)-c1ccc(-c3ccccc3)cc1CC2.[Na+] [Example 12, 5,6-dihydro-9-fluoro-3-phenylbenz-[c]acridine-7-carboxylic acid, sodium salt] | – | 99.75% | 2.44 ± 1.62 10^-4 inches | have immunosuppressive activity | 65 nM | comparable to CSA
